According to ChEMBL document CHEMBL1157092, “Jacaranone-derived glucosidic esters from Jacaranda glabra and their activity against Plasmodium falciparum” (J Nat Prod, 2010):
≈ marks a conversion by molar mass, not a printed value.

Assays:
L6 = experiment: Cytotoxicity against rat L6 cells after 72 hrs by alamar blue assay; format: cell-based; conditions: L6, 72 h
Plasmodium falciparum = experiment: Antiplasmodial activity against chloroquine and pyrimethamine-resistant Plasmodium falciparum K1 infected in human erythrocytes after 48 hrs by [3]H-hypoxanthine incorporation assay; format: functional, organism-based; conditions: K1, 48 h

SMILES	IC50 (L6) [µg/mL]	IC50 (Plasmodium falciparum) [µg/mL]
COC(=O)CC1(O)C=CC(=O)C=C1 [JACARANONE]	1.06 (≈ 5.82 µM)	1.32 (≈ 7.25 µM)
O=C1C=CC(O)(CC(=O)OC[C@H]2O[C@@H](OC(=O)CC3(O)C=CC(=O)C=C3)[C@H](OC(=O)Cc3ccccc3)[C@@H](OC(=O)Cc3ccccc3)[C@@H]2O)C=C1 [JACAGLABROSIDE A]	8.3 (≈ 11.6 µM)	1.02 (≈ 1.42 µM)
O=C1C=CC(O)(CC(=O)OC[C@H]2O[C@@H](OC(=O)CC3(O)C=CC(=O)C=C3)[C@H](OC(=O)Cc3ccccc3)[C@@H](O)[C@@H]2O)C=C1 [JACAGLABROSIDE B]	> 90	0.56 (≈ 0.936 µM)
O=C(O)Cc1ccccc1 [PHENYLACETIC ACID]	> 90	> 5
O=C1C=CC(O)(CC(=O)OC[C@H]2O[C@@H](OC(=O)CC3(O)C=CC(=O)C=C3)[C@H](OC(=O)Cc3ccc(O)cc3)[C@@H](OC(=O)Cc3ccccc3)[C@@H]2O)C=C1 [JACAGLABROSIDE C]	87 (≈ 119 µM)	0.56 (≈ 0.764 µM)
O=C1C=CC(O)(CC(=O)OC[C@H]2O[C@@H](OC(=O)CC3(O)C=CC(=O)C=C3)[C@H](OC(=O)Cc3ccccc3)[C@@H](OC(=O)Cc3ccc(O)cc3)[C@@H]2O)C=C1 [JACAGLABROSIDE D]	84.8 (≈ 116 µM)	0.55 (≈ 0.751 µM)
